In the assay the target is T1, rat metabotropic glutamate receptor 5 (mGluR5) (Rattus norvegicus, UniProt P31424).
T1 construct: expressed in transfected cells; host or cells: HEK 293
The assay can be described thus: Calcium mobilization assay (FLIPR) for negative or positive allosteric activity, HEK 293 cells. The class given is cell-based. Conditions: HEK293, negative allosteric modulation, inhibition of EC80 glutamate response; read-out: FLIPR maximum inhibition. In short, it runs like this:
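HEK 293 cells stably expressing rat mGluR5, Fluo-4 loaded in HEPES-buffered HBSS pH 7.4 with 0.1% BSA and probenecid. Compound added with EC20 (potentiation) or EC80 (inhibition) glutamate; fluorescence read over 3 min at room temperature. Basal-subtracted maximum fluorescence change fitted to Hill equation.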
For orientation: Calcium assays in cells follow changes in intracellular calcium, usually with a dye or a luminescent sensor.

T1 sequence (P31424 21-1171 isoform P31424-2 limits assumed): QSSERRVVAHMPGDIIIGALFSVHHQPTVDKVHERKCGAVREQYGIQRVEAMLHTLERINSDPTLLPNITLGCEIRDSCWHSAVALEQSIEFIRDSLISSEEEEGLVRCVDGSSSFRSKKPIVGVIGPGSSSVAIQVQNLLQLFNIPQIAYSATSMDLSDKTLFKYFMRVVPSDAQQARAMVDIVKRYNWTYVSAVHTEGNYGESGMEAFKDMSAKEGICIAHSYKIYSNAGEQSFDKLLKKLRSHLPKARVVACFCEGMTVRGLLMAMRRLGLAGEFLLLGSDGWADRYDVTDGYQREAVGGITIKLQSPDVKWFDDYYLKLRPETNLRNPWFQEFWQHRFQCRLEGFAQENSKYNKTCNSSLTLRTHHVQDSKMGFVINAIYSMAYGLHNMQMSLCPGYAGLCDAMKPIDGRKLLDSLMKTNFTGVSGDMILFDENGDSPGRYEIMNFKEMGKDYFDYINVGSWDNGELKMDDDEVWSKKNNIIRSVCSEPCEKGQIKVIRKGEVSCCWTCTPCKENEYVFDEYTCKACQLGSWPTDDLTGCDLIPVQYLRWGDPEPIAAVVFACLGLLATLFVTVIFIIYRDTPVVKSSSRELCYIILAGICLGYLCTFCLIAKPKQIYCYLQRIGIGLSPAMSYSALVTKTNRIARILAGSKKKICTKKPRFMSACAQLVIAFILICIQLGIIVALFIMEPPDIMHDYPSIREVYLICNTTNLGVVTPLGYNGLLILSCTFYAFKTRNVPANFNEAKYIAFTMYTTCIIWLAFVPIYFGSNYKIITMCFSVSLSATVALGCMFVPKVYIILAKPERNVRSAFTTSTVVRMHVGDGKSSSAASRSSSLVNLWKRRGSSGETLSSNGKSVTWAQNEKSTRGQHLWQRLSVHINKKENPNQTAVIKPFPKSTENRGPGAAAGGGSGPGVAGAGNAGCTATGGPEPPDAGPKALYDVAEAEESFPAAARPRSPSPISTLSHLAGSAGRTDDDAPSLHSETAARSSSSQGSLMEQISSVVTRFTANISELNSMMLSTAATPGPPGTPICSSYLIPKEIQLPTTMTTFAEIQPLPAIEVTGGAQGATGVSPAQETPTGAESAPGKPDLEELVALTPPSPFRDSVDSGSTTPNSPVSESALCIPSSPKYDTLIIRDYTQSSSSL

For the molecule `Cc1ccn2cc(C(=O)NC34CC5CC(CC(NC(=O)c6cccc(C)n6)(C5)C3)C4)nc2c1` [Example 56, 7-Methyl-imidazo[1,2-a]pyridine-2-carboxylic acid {3-[(6-methyl-pyridine-2-carbonyl)-amino]-adamantan-1-yl}-amide], the Emax fell in the range of 63 to 99%.
Consider `O=C(NC12CC3CC(C1)CC(NC(=O)c1cccc(N4CCC(O)CC4)n1)(C3)C2)c1ccccn1` [Example 200, 4-Hydroxy-3,4,5,6-ttrahydro-2H-[1,2′]bipyridinyl-6′-carboxylic acid {3-[(pyridine-2-carbonyl)-amino]-adamantan-1-yl}-amide], for which the Emax was 63 to 99%.
With `Cc1cccc(C(=O)NC23CC4CC(C2)CC(NC(=O)c2cccc(N(C)CCO)n2)(C4)C3)n1` [Example 209, 6-[(2-Hydroxy-ethyl)-methyl-amino]-pyridine-2-carboxylic acid {3-[(6-methyl-pyridine-2-carbonyl)-amino]-adamantan-1-yl}-amide], the Emax is 63 to 99%.
With `Cc1cccc(C(=O)NC23CC4CC(C2)CC(NC(=O)c2cccc(C(C)(C)O)n2)(C4)C3)n1` [Example 144, 6-Methyl-pyridine-2-carboxylic acid (3-{[6-(1-hydroxy-1-methyl-ethyl)-pyridine-2-carbonyl]-amino}-adamantan-1-yl)-amide] the figure was 70 to 99%; with `Cc1cccc(C(=O)NC23CC4CC(C2)CC(NC(=O)c2cccc(N5CCC(O)C5)n2)(C4)C3)n1` (stereo not drawn) [Example 205, 6-(3-Hydroxy-pyrrolidin-1-yl)-pyridine-2-carboxylic acid{3-[(6-methyl-pyridine-2-carbonyl)-amino]-adamantan-1-yl}-amide], 63 to 99%; with `Cc1cccc(C(=O)NC23CC4CC(C2)CC(NC(=O)c2cccc(CO)n2)(C4)C3)n1` [Example 134, 6-Methyl-pyridine-2-carboxylic acid {3-[(6-hydroxymethylpyridine-2-carbonyl)-amino]-adamantan-1-yl}-amide], 70 to 99%.
For the molecule `O=C(NC12CC3CC(C1)CC(NC(=O)c1onc4ccccc14)(C3)C2)c1ccccn1` [Example 62, Benzo[c]isoxazole-3-carboxylic acid {3-[(pyridine-2-carbonyl)-amino]-adamantan-1-yl}-amide], the Emax was 63 to 99%.
The result for `Cc1cncc(C(=O)NC23CC4CC(CC(NC(=O)c5ccnc(F)c5)(C4)C2)C3)n1` [Example 160, 6-Methyl-pyrazine-2-carboxylic acid {3-[(2-fluoro-pyridine-4-carbonyl)-amino]-adamantan-1-yl}-amide] reads 70 to 99%; that for `Cc1cccc(C(=O)NC23CC4CC(C2)CC(NC(=O)c2ccn(C)n2)(C4)C3)n1` [Example 20, 6-Methyl-pyridine-2-carboxylic acid {3-[(1-methyl-1H-pyrazole-3-carbonyl)-amino]-adamantan-1-yl}-amide], 63 to 99%.
In the case of `O=C(NC12CC3CC(C1)CC(NC(=O)c1cnccn1)(C3)C2)c1ccnc(Br)c1` [Example 186, Pyrazine-2-carboxylic acid {3-[(2-bromo-pyridine-4-carbonyl)-amino]-adamantan-1-yl}-amide], the Emax fell in the range of 63 to 99%.
On to `Cc1cccc(C(=O)NC23CC4CC(C2)CC(NC(=O)C2CCC2)(C4)C3)n1` [Example 46, 6-Methyl-pyridine-2-carboxylic acid [3-(cyclobutanecarbonyl-amino)-adamantan-1-yl]-amide], for which the Emax lay within 63 to 99%.
On to `CN(C)CCN(C)c1cccc(C(=O)NC23CC4CC(CC(NC(=O)c5cccc(F)c5)(C4)C2)C3)n1` [Example 248, 6-[(2-Dimethylamino-ethyl)-methyl-amino]-pyridine-2-carboxylic acid [3-(3-fluoro-benzoylamino)-adamantan-1-yl]-amide], for which the Emax lay in the range of 63 to 99%.
As for `Cc1cncc(C(=O)NC23CC4CC(C2)CC(NC(=O)c2cc(Cl)ccc2F)(C4)C3)n1` [Example 161, 6-Methyl-pyrazine-2-carboxylic acid [3-(5-chloro-2-fluoro-benzoylamino)-adamantan-1-yl]-amide], the Emax is 70 to 99%.
Regarding `Cc1cncc(C(=O)NC23CC4CC(C2)CC(NC(=O)c2csc(C)n2)(C4)C3)n1` [Example 157, 6-Methyl-pyrazine-2-carboxylic acid {3-[(2-methyl-thiazole-4-carbonyl)-amino]-adamantan-1-yl}-amide], the Emax fell in the range of 70 to 99%.
For the molecule `COCCNc1cccc(C(=O)NC23CC4CC(CC(NC(=O)c5cccc(F)c5)(C4)C2)C3)n1` [Example 245, 6-(2-Methoxy-ethylamino)-pyridine-2-carboxylic acid [3-(3-fluoro-benzoylamino)-adamantan-1-yl]-amide], the Emax fell in the range of 63 to 99%.
`COc1cccc(C(=O)NC23CC4CC(CC(NC(=O)c5cncc(C)n5)(C4)C2)C3)c1F` [Example 167, 6-Methyl-pyrazine-2-carboxylic acid [3-(2-fluoro-3-methoxy-benzoylamino)-adamantan-1-yl]-amide]: the Emax fell in the range of 63 to 99%.
As for `O=C(NC12CC3CC(C1)CC(NC(=O)c1cccc(N4CCOCC4)n1)(C3)C2)c1cccc(F)c1` [Example 215, 6-Morpholin-4-yl-pyridine-2-carboxylic acid [3-(3-fluoro-benzoylamino)-adamantan-1-yl]-amide], the Emax was 63 to 99%.
As for `O=C(NC12CC3CC(C1)CC(NC(=O)c1cccc(N4CCC[C@@H]4CO)n1)(C3)C2)c1ccccn1` [Example 229, 6-((R)-2-Hydroxymethyl-pyrrolidin-1-yl)-pyridine-2-carboxylic acid {3-[(pyridine-2-carbonyl)-amino]-adamantan-1-yl}-amide], the Emax was 63 to 99%.
For the molecule `O=C(NC12CC3CC(C1)CC(NC(=O)c1cnc4ccccc4n1)(C3)C2)c1cnc2ccccc2n1` [Example 13, N,N′-(1,3-adamantylene)bis(quinoxaline-2-carboxamide)], the Emax is 63 to 99%.
In the case of `O=C(NC12CC3CC(C1)CC(NC(=O)c1cn4ccccc4n1)(C3)C2)c1cccc(F)c1` [Example 100, Imidazo[1,2-a]pyridine-2-carboxylic acid [3-(3-fluoro-benzoylamino)-adamantan-1-yl]-amide], the Emax fell in the range of 63 to 99%.
Consider `Cc1cccc(C(=O)NC23CC4CC(C2)CC(NC(=O)c2c5ccccc5nn2C)(C4)C3)n1` [Example 49, 2-Methyl-2H-indazole-3-carboxylic acid {3-[(6-methyl-pyridine-2-carbonyl)-amino]-adamantan-1-yl}-amide], for which the Emax fell in the range of 63 to 99%.
`Cn1ccc(C(=O)NC23CC4CC(C2)CC(NC(=O)c2ccn(C)n2)(C4)C3)n1` [Example 17, N,N′-(1,3-Adamantylene)bis(1-methyl-1H-pyrazole-3-carboxamide)]: the Emax lay within 63 to 99%.
With `O=C(NC12CC3CC(C1)CC(NC(=O)c1ccnc(C(F)(F)F)n1)(C3)C2)c1cnccn1` [Example 190, 2-Trifluoromethyl-pyrimidine-4-carboxylic acid {3-[(pyrazine-2-carbonyl)-amino]-adamantan-1-yl}-amide] the figure was 63 to 99%; with `Cc1cccc(C(=O)NC23CC4CC(C2)CC(NC(=O)c2cccc(C(C)O)n2)(C4)C3)n1` (stereo not drawn) [Example 143, 6-Methyl-pyridine-2-carboxylic acid {3-[(6-(1-hydroxy-ethyl)-pyridine-2-carbonyl)-amino]-adamantan-1-yl}-amide], 70 to 99%; with `Cc1cccc(C(=O)NC23CC4CC(C2)CC(NC(=O)c2cccc(C(N)=O)n2)(C4)C3)n1` [Example 133, Pyridine-2,6-dicarboxylic acid 2-amide 6-({3-[(6-methyl-pyridine-2-carbonyl)-amino]-adamantan-1-yl}-amide)], 70 to 99%.
Regarding `O=C(NC12CC3CC(C1)CC(NC(=O)c1cccc(N4CCCC4)n1)(C3)C2)c1ccccn1` [Example 61, 6-Pyrrolidin-1-yl-pyridine-2-carboxylic acid {3-[(pyridine-2-carbonyl)-amino]-adamantan-1-yl}-amide], the Emax was in the range of 63 to 99%.
The result for `Cc1cccc(C(=O)NC23CC4CC(CC(NC(=O)c5ccn6ccnc6c5)(C4)C2)C3)n1` [Example 51, Imidazo[1,2-a]pyridine-7-carboxylic acid {3-[(6-methyl-pyridine-2-carbonyl)-amino]-adamantan-1-yl}-amide] reads 63 to 99%; that for `Cc1cncc(C(=O)NC23CC4CC(C2)CC(NC(=O)c2ccnc(C)n2)(C4)C3)n1` [Example 173, 2-Methyl-pyrimidine-4-carboxylic acid {3-[(6-methyl-pyrazine-2-carbonyl)-amino]-adamantan-1-yl}-amide], 63 to 99%.
Take `Cc1cccc(C(=O)NC23CC4CC(C2)CC(NC(=O)c2cccc(N)n2)(C4)C3)n1` [Example 117, 6-Methyl-pyridine-2-carboxylic acid {3-[(6-aminopyridine-2-carbonyl)-amino]-adamantan-1-yl}-amide]: the Emax is 70 to 99%.
For the molecule `O=C(NC12CC3CC(C1)CC(NC(=O)c1ccnc(C(F)(F)F)n1)(C3)C2)c1ccccn1` [Example 112, 2-Trifluoromethyl-pyrimidine-4-carboxylic acid {3-[(pyridine-2-carbonyl)-amino]-adamantan-1-yl}-amide], the Emax is 70 to 99%.
`Cc1cccc(C(=O)NC23CC4CC(C2)CC(NC(=O)c2scc5c2OCCO5)(C4)C3)n1` [Example 38, 6-Methyl-pyridine-2-carboxylic acid {3-[(2,3-dihydro-thieno[3,4-b][1,4]dioxine-5-carbonyl)-amino]-adamantan-1-yl}-amide]: the Emax lay within 63 to 99%.
With `O=C(NC12CC3CC(C1)CC(NC(=O)c1cccc(Cl)c1)(C3)C2)c1cccc(Cl)c1` [Example 3, N,N′-(1,3-adamantylene)bis(3-chloro-benzamide)] the figure was 90 to 99%; with `Cc1cncc(C(=O)NC23CC4CC(CC(NC(=O)c5ccc(F)c(Cl)c5)(C4)C2)C3)n1` [Example 149, 6-Methyl-pyrazine-2-carboxylic acid [3-(3-chloro-4-fluoro-benzoylamino)-adamantan-1-yl]-amide], 70 to 99%.
